PubChem BioAssay AID192 (DTP/NCI, 2004)
Several values for one entry are separate records, joined by “and”; a condition that tells them apart may be missing. Identical values can stand only once. Inconclusive results and toxic doses are left out. How the source made its calls: active means survival T/C of 150% or more; inactive means T/C below 125% in these data. Peptide text beside a SMILES is read from it. * marks the point of attachment. Cbz = O=C(OCc1ccccc1)*; CH2Cl = ClC*

System: BDF1 mice, B16 melanoma ip, median survival T/C
Assay: NCI In Vivo Anticancer Drug Screen. Data for tumor model B16 Melanoma (intraperitoneal) in B6D2F1 (BDF1) mice
Settings: endpoint: median survival time, higher = longer survival
Method in brief: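 The ratio T/C compares compound-treated mice with vehicle-treated controls, using survival or tumor size as the endpoint in a transplantable tumor model.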

[1] = dose: 12.5 mg/kg/injection, schedule: Q01DX009 (ip), vehicle: saline
[2] = dose: 25.0 mg/kg/injection, schedule: Q01DX009 (ip), vehicle: saline
[3] = dose: 100.0 mg/kg/injection, schedule: Q01DX009 (ip), vehicle: Klucel (hydroxypropylcellulose) (HPC)
[4] = dose: 200.0 mg/kg/injection, schedule: Q01DX009 (ip), vehicle: Klucel (hydroxypropylcellulose) (HPC)
[5] = dose: 0.39 mg/kg/injection, schedule: Q01DX009 (ip), vehicle: saline
[6] = dose: 0.78 mg/kg/injection, schedule: Q01DX009 (ip), vehicle: saline
[7] = dose: 1.56 mg/kg/injection, schedule: Q01DX009 (ip), vehicle: saline
[8] = dose: 50.0 mg/kg/injection, schedule: Q01DX009 (ip), vehicle: saline with Tween-80
[9] = dose: 100.0 mg/kg/injection, schedule: Q01DX009 (ip), vehicle: saline with Tween-80
[10] = dose: 200.0 mg/kg/injection, schedule: Q01DX009 (ip), vehicle: saline with Tween-80
[11] = dose: 6.25 mg/kg/injection, schedule: Q01DX009 (ip), vehicle: saline
[12] = dose: 50.0 mg/kg/injection, schedule: Q01DX009 (ip), vehicle: Klucel (hydroxypropylcellulose) (HPC)
[13] = dose: 12.5 mg/kg/injection, schedule: Q01DX009 (ip), vehicle: saline with Tween-80
[14] = dose: 25.0 mg/kg/injection, schedule: Q01DX009 (ip), vehicle: saline with Tween-80
[15] = dose: 25.0 mg/kg/injection, schedule: Q01DX009 (ip), vehicle: Klucel (hydroxypropylcellulose) (HPC)
[16] = dose: 3.13 mg/kg/injection, schedule: Q01DX009 (ip), vehicle: saline

Measured: T/C

NC(Cc1cnc[nH]1)C(=O)O (stereo unspecified) (tested in a mixture with another compound)
inactive: dose: 100.0 mg/kg/injection, schedule: Q01DX009 (ip), vehicle: saline 106 % of control | dose: 100.0 mg/kg/injection, schedule: Q04DX003 (ip), vehicle: saline 104 % of control | dose: 200.0 mg/kg/injection, schedule: Q01DX009 (ip), vehicle: saline 100 % of control | dose: 200.0 mg/kg/injection, schedule: Q04DX003 (ip), vehicle: saline 90 % of control | dose: 400.0 mg/kg/injection, schedule: Q01DX009 (ip), vehicle: saline 100 % of control | dose: 400.0 mg/kg/injection, schedule: Q04DX003 (ip), vehicle: saline 102 % of control

NCC(c1ccccc1)c1ccccc1
inactive: [1] 100 % of control | [2] 91 % of control | dose: 50.0 mg/kg/injection, schedule: Q01DX009 (ip), vehicle: saline 91 % of control

CCOC(=O)C1=C(O)c2c(sc(C)c2C)N(S(=O)(=O)c2ccc(C)cc2)CC1
inactive: dose: 12.5 mg/kg/injection, schedule: Q04DX003 (ip), vehicle: saline with Tween-80 116 % of control | dose: 25.0 mg/kg/injection, schedule: Q04DX003 (ip), vehicle: saline with Tween-80 113 % of control | dose: 50.0 mg/kg/injection, schedule: Q04DX003 (ip), vehicle: saline with Tween-80 111 % of control | dose: 100.0 mg/kg/injection, schedule: Q04DX003 (ip), vehicle: saline with Tween-80 111 % of control | dose: 200.0 mg/kg/injection, schedule: Q04DX003 (ip), vehicle: saline with Tween-80 108 % of control

Cc1ccc(Cl)cc1NC(=O)c1ccc(Cl)cc1Cl
inactive: dose: 100.0 mg/kg/injection, schedule: Q04DX003 (ip), vehicle: Klucel (hydroxypropylcellulose) (HPC) 95 % of control | dose: 200.0 mg/kg/injection, schedule: Q04DX003 (ip), vehicle: Klucel (hydroxypropylcellulose) (HPC) 102 % of control

CC1=C(CCC(=O)O)c2cc3nc(cc4[nH]c(cc4C)cc4[nH]c(cc1n2)cc4C)C(C)(C)C3CCC(=O)O (stereo unspecified)
inactive: dose: 3.0 mg/kg/injection, schedule: Q01DX009 (ip), vehicle: Klucel (hydroxypropylcellulose) (HPC) 109 % of control | dose: 6.0 mg/kg/injection, schedule: Q01DX009 (ip), vehicle: Klucel (hydroxypropylcellulose) (HPC) 101 % of control | dose: 12.0 mg/kg/injection, schedule: Q01DX009 (ip), vehicle: Klucel (hydroxypropylcellulose) (HPC) 90 % of control | dose: 24.0 mg/kg/injection, schedule: Q01DX009 (ip), vehicle: Klucel (hydroxypropylcellulose) (HPC) 104 % of control

C=CC12COC(=O)C(=C)C1C1OC(=O)C(=C)C1C(O)C2 (stereo unspecified)
inactive: dose: 0.93 mg/kg/injection, schedule: Q01DX009 (ip), vehicle: Klucel (hydroxypropylcellulose) (HPC) 95 % of control | dose: 1.87 mg/kg/injection, schedule: Q01DX009 (ip), vehicle: Klucel (hydroxypropylcellulose) (HPC) 104 % of control | dose: 3.75 mg/kg/injection, schedule: Q01DX009 (ip), vehicle: Klucel (hydroxypropylcellulose) (HPC) 101 % of control | dose: 7.5 mg/kg/injection, schedule: Q01DX009 (ip), vehicle: Klucel (hydroxypropylcellulose) (HPC) 98 % of control

CCOC(=O)C(Cc1c[nH]c2cc(N)ccc12)(NC(C)=O)C(=O)OCC
inactive: [3] 89 % of control | [4] 87 % of control

CSc1ccc(NC(=O)Nc2ccccc2)cc1
inactive: [3] 102 % of control | [4] 98 % of control | dose: 400.0 mg/kg/injection, schedule: Q01DX009 (ip), vehicle: Klucel (hydroxypropylcellulose) (HPC) 95 % of control

O=C1CC2(CCCCC2)CO1
inactive: dose: 0.09 mg/kg/injection, schedule: Q01DX009 (ip), vehicle: saline 102 % of control | dose: 0.19 mg/kg/injection, schedule: Q01DX009 (ip), vehicle: saline 95 % of control | [5] 91 % of control | [6] 95 % of control | [7] 95 % of control

Cc1cc2nc(CN)[nH]c2cc1C
inactive: [8] 110 % of control | [9] 97 % of control | [10] 97 % of control

CC(C)CC(NC(=O)OCc1ccccc1)C(=O)NC(Cc1ccccc1)C(=O)CCl (stereo not drawn) (Cbz-Leu-Phe-CH2Cl; configuration not given here)
inactive: [7] 99 % of control | dose: 3.12 mg/kg/injection, schedule: Q01DX009 (ip), vehicle: saline 99 % of control | [11] 97 % of control

C=C(Cl)c1c(C)cc(C)cc1C
inactive: [12] 87 % of control

Cc1n[nH]c2ccc([N+](=O)[O-])cc2c1=O
inactive: dose: 6.25 mg/kg/injection, schedule: Q01DX009 (ip), vehicle: saline with Tween-80 97 % of control | [13] 90 % of control | [14] 95 % of control

O=C(O)c1ccc2sc3ccccc3c(=O)c2c1
inactive: dose: 75.0 mg/kg/injection, schedule: Q01DX009 (ip), vehicle: Klucel (hydroxypropylcellulose) (HPC) 100 % of control | dose: 150.0 mg/kg/injection, schedule: Q01DX009 (ip), vehicle: Klucel (hydroxypropylcellulose) (HPC) 96 % of control | dose: 300.0 mg/kg/injection, schedule: Q01DX009 (ip), vehicle: Klucel (hydroxypropylcellulose) (HPC) 96 % of control

O=C(NCCCN1CCOCC1)C(Oc1ccccc1)Oc1ccccc1
inactive: dose: 0.09 mg/kg/injection, schedule: Q01DX009 (ip), vehicle: Klucel (hydroxypropylcellulose) (HPC) 88 % of control | dose: 0.19 mg/kg/injection, schedule: Q01DX009 (ip), vehicle: Klucel (hydroxypropylcellulose) (HPC) 92 % of control | dose: 0.78 mg/kg/injection, schedule: Q01DX009 (ip), vehicle: Klucel (hydroxypropylcellulose) (HPC) 87 % of control | dose: 1.56 mg/kg/injection, schedule: Q01DX009 (ip), vehicle: Klucel (hydroxypropylcellulose) (HPC) 88 % of control | dose: 12.5 mg/kg/injection, schedule: Q01DX009 (ip), vehicle: Klucel (hydroxypropylcellulose) (HPC) 92 % of control | [15] 86 % of control and 103 % of control | [12] 90 % of control

O=S(=O)(O)c1ccc(/C2=c3\cc/c([n-]3)=C(\c3ccc(S(=O)(=O)O)cc3)c3ccc([n-]3)/C(c3ccc(S(=O)(=O)O)cc3)=c3/cc/c([n-]3)=C(\c3ccc(S(=O)(=O)O)cc3)c3ccc2[n-]3)cc1.[Co]
inactive: [16] 111 % of control | [11] 107 % of control | [1] 108 % of control | [2] 101 % of control

CCC(C)C(C#N)(CCN(CC)CC)c1ccccc1 (stereo unspecified)
inactive: [15] 121 % of control | [12] 118 % of control | [3] 109 % of control

C=COCC(C)C (tested in a mixture with another compound)
inactive: [5] 108 % of control | [6] 100 % of control | dose: 1.56 mg/kg/injection, schedule: Q01DX009 (ip), vehicle: saline with Tween-80 88 % of control | [7] 88 % of control and 94 % of control | [16] 89 % of control | [11] 86 % of control

O=C(NCCCl)NCCCl
inactive: dose: 5.0 mg/kg/injection, schedule: Q01DX009 (ip), vehicle: Klucel (hydroxypropylcellulose) (HPC) 94 % of control | dose: 10.0 mg/kg/injection, schedule: Q01DX009 (ip), vehicle: Klucel (hydroxypropylcellulose) (HPC) 102 % of control | [13] 95 % of control | dose: 20.0 mg/kg/injection, schedule: Q01DX009 (ip), vehicle: Klucel (hydroxypropylcellulose) (HPC) 88 % of control | [14] 95 % of control | dose: 40.0 mg/kg/injection, schedule: Q01DX009 (ip), vehicle: Klucel (hydroxypropylcellulose) (HPC) 91 % of control | [8] 100 % of control | dose: 80.0 mg/kg/injection, schedule: Q01DX009 (ip), vehicle: Klucel (hydroxypropylcellulose) (HPC) 102 % of control | dose: 160.0 mg/kg/injection, schedule: Q01DX009 (ip), vehicle: Klucel (hydroxypropylcellulose) (HPC) 94 % of control | [10] 95 % of control | dose: 320.0 mg/kg/injection, schedule: Q01DX009 (ip), vehicle: Klucel (hydroxypropylcellulose) (HPC) 91 % of control | dose: 400.0 mg/kg/injection, schedule: Q01DX009 (ip), vehicle: saline with Tween-80 102 % of control

COc1ccc(Br)cc1
inactive: [8] 100 % of control | [9] 104 % of control
